Experiments:
Experiment in all cases: Cytokine profile of CD4 T cell clone stimulated with cognate peptide (intracellular staining)
Type in all cases: cell-based, human
Settings in all cases: cognate peptide 10 μM, 5 hours
[1] = tested on: CD4 T cell clone 1A5-DRβ1*1101
Procedure: (§1) Lymphocytes were stimulated for 5 hours in the presence of brefeldin A (10 μg/mL) either with peptide alone (10 μM) in an autopresentation assay or with B-EBV or HLA-class II expressing melanoma cells pulsed 2 hours with the cognate peptide, at a ratio 1:2. In some experiments, blocking mAb against HLA-DP (clone B7.21 from Dr Charron, UMR940, Paris), HLA-DQ (clone SPVL3, Beckman Coulter) or HLA-DR (clone L243, BD Biosciences) were added at a concentration of 12.5 μg/ml. Cells were then stained with APC-conjugated anti-CD4 mAb, fixed with 4% paraformaldehyde, labeled with PE-conjugated anti-cytokine mAb and analyzed by flow cytometry.
(§2) We also documented the T helper profile of each T cell clone, by stimulating the CD4 T cell clones with the cognate peptide, and analyzing cytokine production. All the clones expressed Th1 cytokines (TNFα, IFNγ, IL2 and GM-CSF). On the contrary, these clones differ in their expression of Th2 cytokines. Indeed, the two DQ2 restricted T cell clones (9C12 and 4E2) and the DR1 restricted one (5F9) also strongly express two Th2 cytokines (IL4, and IL13), whereas the DR11-restricted T cell clone only weakly expressed IL4 (Table IV). None of the CD4 T cell expresses IL10 or IL5 at a significant level.

[2] = tested on: CD4 T cell clone 5F9-DRβ1*0101
Procedure: as §1, §2

[3] = tested on: CD4 T cell clone 9C12-DQβ*0202
Procedure: as §1, §2

With TSREQFLPSEGAACPPWHPS [MELOE-111-30] the “Cytokine profile: GM-CSF” value [1] was “GM-CSF^high”, the “Cytokine profile: IFN” value [1] was “IFN^high” and the “Cytokine profile: IL2” value [1] was “IL2^high”. The “Cytokine profile: IL4” value [1] was “IL4^low”, the “Cytokine profile: IL5” value [1] was “IL5^neg” and the “Cytokine profile: IL10” value [1] was “IL10^neg”. For the same sequence, the “Cytokine profile: IL13” value [1] was “IL13^neg”, the “Cytokine profile: TNF” value [1] was “TNF^high” and the “Cytokine profile: GM-CSF” value [2] was “GM-CSF^high”. For the same sequence, the “Cytokine profile: IFN” value [2] was “IFN^high”, the “Cytokine profile: IL2” value [2] was “IL2^low” and the “Cytokine profile: IL4” value [2] was “IL4^high”. For the same sequence, the “Cytokine profile: IL5” value [2] was “IL5^neg”, the “Cytokine profile: IL10” value [2] was “IL10^neg” and the “Cytokine profile: IL13” value [2] was “IL13^high”. The “Cytokine profile: TNF” value [2] was “TNF^high”.
“SCVGYPDEATSREQFLPSEG (SCVGYPDEATSREQFLPSEC) [MELOE-12-21]” was tested, and the “Cytokine profile: GM-CSF” value [3] was “GM-CSF^high”, the “Cytokine profile: IFN” value [3] was “IFN^high” and the “Cytokine profile: IL2” value [3] was “IL2^high”. For the same sequence, the “Cytokine profile: IL4” value [3] was “IL4^high”, the “Cytokine profile: IL5” value [3] was “IL5^high” and the “Cytokine profile: IL10” value [3] was “IL10^neg”. For the same sequence, the “Cytokine profile: IL13” value [3] was “IL13^high” and the “Cytokine profile: TNF” value [3] was “TNF^high”.

Reference: patent publication US9475841B2, “Melanoma antigen peptide and uses thereof” (INSERM (INSTITUT NATIONAL DE LA SANTE ET DE LA RECHERCHE …, priority 2012, dated 2016)
